We go through 1 molecule from article PMC5120204, “Identification of an orally active small-molecule PTHR1 agonist for the treatment of hypoparathyroidism” (Nature Communications, 2016).

In series [1] the target is T1, hPTHR1 (Homo sapiens, UniProt Q03431).
T1 construct: similar to that of cells expressing full-length hPTHR1; expressed in transfected cells; host or cells: COS-7 (transient, FuGENE HD)
T1 sequence (Q03431 27-593 E93Y/D94P/K95Y/E96D/A97V/T99D/G100Y/S101A): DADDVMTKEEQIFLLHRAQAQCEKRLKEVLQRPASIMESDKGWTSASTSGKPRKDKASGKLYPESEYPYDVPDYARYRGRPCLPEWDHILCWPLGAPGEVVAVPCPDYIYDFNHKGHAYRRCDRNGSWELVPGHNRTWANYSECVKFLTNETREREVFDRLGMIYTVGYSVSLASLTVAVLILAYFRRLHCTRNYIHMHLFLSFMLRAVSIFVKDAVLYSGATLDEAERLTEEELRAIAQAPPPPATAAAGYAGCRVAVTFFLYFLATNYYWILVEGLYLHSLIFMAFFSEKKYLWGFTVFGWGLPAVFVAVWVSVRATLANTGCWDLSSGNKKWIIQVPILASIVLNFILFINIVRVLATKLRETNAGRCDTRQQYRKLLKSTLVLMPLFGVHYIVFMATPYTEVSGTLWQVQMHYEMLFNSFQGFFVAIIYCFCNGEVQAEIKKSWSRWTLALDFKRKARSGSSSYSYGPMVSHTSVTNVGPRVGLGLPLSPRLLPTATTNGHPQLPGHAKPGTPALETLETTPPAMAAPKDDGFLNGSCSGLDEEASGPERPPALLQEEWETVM
The series can be described thus: Receptor binding assay, competition with 125I-[Aib1,3,M]–PTH(1–15) on COS-7 membranes. As to conditions: at 100 μmol l^−1. As to the method:
COS-7 cells (ATCC) were seeded into 10-cm dishes (1.7 × 10^6 cells per dish) and incubated overnight. The next day, the COS-7 cells were transfected by adding 500 μl of a mixture of hPTHR1 plasmid (10 μg per dish), FuGENE HD Transfection Reagent (40 μl per dish, Promega) and Opti-MEM I Reduced Serum Medium (450 μl per well, Life Technologies) to each dish. On the third day after the cells were seeded into the dishes, the culture medium in the dishes was discarded, each dish was washed with 5 ml of Buffer A (10 mmol l^−1 Tris-HCl, pH 7.4/4 mmol l^−1 EDTA) without protease inhibitor cocktail (PI; Nacalai Tesque, Inc.), and then 750 μl of Buffer A (10 mmol l^−1 Tris-HCl, pH 7.4/4 mmol l^−1 EDTA/1 × PI) was added to each dish. […] The protein concentration was determined using Protein Assay Dye Reagent Concentrate (Bio-Rad Laboratories, Inc). […]
The binding of hPTH(1–34) and PCO371 free base to hPTHR1 was evaluated by competition assay using ^125I-[Aib^1,3,M]PTH(1–15) as the competing entity. […] The dried filter was recovered, and the ^125I radioactivity was measured using a gamma counter. […] Total ^125I count rates (cpm) measured by the gamma counter were used as the primary data. Binding to hPTHR1 was evaluated by calculating the per cent specific binding from the following formula using Microsoft Office Excel 2007.
Percentage specific binding was calculated by the following formula: equation (1) […]

Series [2] in a line: Pharmacokinetics in normal rats. To be noted: for half-life / AUC(0-inf) / Cmax / Tmax: female, RccHan:WIST, rat, plasma, po.
Procedure: PCO371 was administered at a dose of 2, 6 or 18 mg kg^−1 orally to 7-week-old normal female rats (RccHan: WIST, JLA; three rats for each dose group), or at a dose of 2, 6 or 18 mg kg^−1 orally to 7-week-old female TPTX rats [Crl:CD(SD), Charles River Laboratories; three TPTX rats for each dose group] or at 30 mg kg^−1 orally or 3, 10 mg kg^−1 intravenously to 55-week-old OVX rats as described above. Blood samples were collected at 15 and 30 min, and 1, 2, 4, 8 and 24 h after administration. […] The concentrations of plasma PCO371 were determined by liquid chromatography–tandem mass spectrometry [LC-MS/MS (API-3200 (AB SCIEX), detection limit: 1 ng ml^−1).

Molecules are shown by their SMILES.

As for `Cc1cc(N2C(=O)NC(=O)C2(C)C)cc(C)c1CCS(=O)(=O)N1CCC2(CC1)N=C(c1ccc(OC(F)(F)F)cc1)NC2=O` [PCO371, 1-{3,5-dimethyl-4-[2-({4-oxo-2-[4-(trifluoromethoxy)phenyl]-1,3,8-triazaspiro[4.5]dec-1-en-8-yl}sulfonyl)ethyl]phenyl}-5,5-dimethylimidazolidine-2,4-dione], the “inhibition of the binding of 125I-[Aib1,3,M]–PTH(1–15)” value in series [1] is “almost completely”. In addition, the half-life is 1.5 to 1.7 h in series [2], 1.5 ± 0.1 h in series [2] (2 mg/kg), 1.4 ± 0.2 h in series [2] (6 mg/kg) and 1.7 ± 0.3 h in series [2] (18 mg/kg). In addition, the values for the AUC(0-inf) in series [2] (2 mg/kg), in series [2] (6 mg/kg) and in series [2] (18 mg/kg) were 374 ± 187 ng·h/mL, 2360 ng·h/mL and 18600 ng·h/mL, respectively. Besides, the Cmax in series [2] (2 mg/kg) was 92.5 ± 37.1 ng/mL; in series [2] (6 mg/kg) it was 727 ± 103 ng/mL; in series [2] (18 mg/kg) it was 4560 ng/mL. For the same molecule, the Tmax amounted to 1.5 ± 0.9 h in series [2] (2 mg/kg), 1 h in series [2] (6 mg/kg) and 1.3 ± 0.6 h in series [2] (18 mg/kg). Also, the “BA (oral bioavailability)” value in series [2] (normal rats, p.o. 2 mg kg^−1) is on record as 34%. In addition, the “time at which Cmax was attained” value in series [2] (normal rats, single oral dose, dose range tested) was 1 to 1.5 h.

In general, half-life refers to the time in which the quantity being followed falls by half. Lower therefore signals fast loss. In general, AUC(0-inf) refers to total exposure, with the tail of the curve extrapolated. A higher AUC(0-inf) goes with more exposure. The Cmax is the peak of the concentration-time curve. In general, Tmax refers to the time at which the peak concentration occurs.
